How the values were obtained:
Conditions in all cases: 72 h
[1] = test system: Caco-2; assay: cell viability relative to DMSO; higher = less toxic
[2] = test system: HepG2; assay: as above
[3] = test system: U2OS; assay: as above
[4] = test system: Vero E6; assay: as above
[5] = test system: Caco-2; assay: relative viability EC50 (midpoint between 100% and the lowest measured viability); higher = less toxic
[6] = test system: HepG2; assay: as above
[7] = test system: U2OS; assay: as above
[8] = test system: Vero E6; assay: as above
[9] = test system: Caco-2; assay: drug sensitivity score (DSS) for viability; higher = more toxic; extreme values may be limits of the assay
[10] = test system: HepG2; assay: as above
[11] = test system: U2OS; assay: as above
[12] = test system: Vero E6; assay: as above
[13] = test system: Calu-3; assay: cell viability relative to DMSO; higher = less toxic
[14] = test system: Calu-3; assay: drug sensitivity score (DSS) for viability; higher = more toxic; extreme values may be limits of the assay
[15] = test system: Calu-3; assay: relative viability EC50 (midpoint between 100% and the lowest measured viability); higher = less toxic

Row | Compound | cell viability ([1]; 1 nM) [%] | cell viability ([1]; 10 nM) [%] | cell viability ([1]; 100 nM) [%] | cell viability ([1]; 1000 nM) [%] | cell viability ([1]; 10000 nM) [%] | cell viability ([2]; 1 nM) [%] | cell viability ([2]; 10 nM) [%] | cell viability ([2]; 100 nM) [%] | cell viability ([2]; 1000 nM) [%] | cell viability ([2]; 10000 nM) [%] | cell viability ([3]; 1 nM) [%] | cell viability ([3]; 10 nM) [%] | cell viability ([3]; 100 nM) [%] | cell viability ([3]; 1000 nM) [%] | cell viability ([3]; 10000 nM) [%] | cell viability ([4]; 1 nM) [%] | cell viability ([4]; 10 nM) [%] | cell viability ([4]; 100 nM) [%] | cell viability ([4]; 1000 nM) [%] | cell viability ([4]; 10000 nM) [%] | relative viability EC50 [5] [µM] | relative viability EC50 [6] [µM] | relative viability EC50 [7] [µM] | relative viability EC50 [8] [µM] | drug sensitivity score [9] | drug sensitivity score [10] | drug sensitivity score [11] | drug sensitivity score [12] | cell viability ([13]; 1 nM) [%] | cell viability ([13]; 10 nM) [%] | cell viability ([13]; 100 nM) [%] | cell viability ([13]; 1000 nM) [%] | cell viability ([13]; 10000 nM) [%] | drug sensitivity score [14] | relative viability EC50 [15] [µM]
1 | CCOC(=O)[C@H](Cc1ccccc1)NC(=O)c1cc(Cl)c(OCCN2CCN(C)CC2)c(Cl)c1O [JTE-607] | 90.9 | 95.5 | 99.8 | 103 | 76.1 | 107 | 109 | 98.6 | 56.8 | 41.9 | 99.9 | 98.8 | 95.7 | 102 | 80 | 103 | 99.1 | 104 | 101 | 103 | > 10 | 0.606 | > 10 | > 10 | 0.7 | 8.4 | 0.5 | 0 |  |  |  |  |  |  | 
2 | c1ccc(CCNc2nc(-c3ccccc3)cs2)cc1 [fanetizole] | 96.4 | 87.3 | 92.3 | 88.9 | 87.3 | 101 | 96.9 | 103 | 94.5 | 100 | 104 | 104 | 104 | 97.7 | 101 | 98.7 | 99.7 | 101 | 98.4 | 100 | > 10 | > 10 | > 10 | > 10 | 0.9 | 0 | 0 | 0 |  |  |  |  |  |  | 
3 | O=c1oc2cc(O)ccc2s1 [tioxolone] | 90.6 | 97.9 | 88.6 | 107 | 77.2 | 104 | 90.4 | 96 | 93.7 | 104 | 96.2 | 103 | 100 | 104 | 95.6 | 101 | 98.1 | 99.9 | 94.2 | 101 | > 10 | > 10 | > 10 | > 10 | 0.5 | 0 | 0 | 0 | 99.8 | 102 | 97.8 | 98.5 | 64.3 | 1.9 | 
4 | CN(C)CCN(C)CCc1ccc(Cl)c(Cl)c1 [BD-1047] | 95.4 | 102 | 98.3 | 94.6 | 91.8 | 98.3 | 102 | 96.2 | 85.5 | 89.9 | 97.2 | 102 | 93.4 | 97.5 | 94.7 | 94.5 | 104 | 96.8 | 93.6 | 97.4 | > 10 | > 10 | > 10 | > 10 | 0 | 1.6 | 0 | 0 |  |  |  |  |  |  | 
5 | O=[N+]([O-])c1cnc(Sc2nnc(O)n2-c2ccc3c(c2)OCCO3)s1 [BI-78D3] | 99.2 | 102 | 94 | 88.3 | 7 | 103 | 102 | 95.8 | 70.3 | 1.4 | 98.9 | 98 | 94.5 | 97.9 | 0.1 | 101 | 95.6 | 99.3 | 94.7 | 0.4 | 2.14 | 1.4 | 3.02 | 2.75 | 7.1 | 9.8 | 5.8 | 6.3 |  |  |  |  |  |  | 
6 | COc1ccc(S(=O)(=O)N(C(C)=O)c2ccccc2/C=C/c2cc[n+]([O-])cc2)cc1 [HMN-214] | 105 | 89.6 | 94.2 | 60.3 | 48.4 | 98.4 | 105 | 98.1 | 40.3 | 38 | 97.5 | 95.8 | 96.9 | 51.9 | 29.3 | 94.6 | 97.9 | 99.8 | 41.8 | 41 | 0.41 | 0.323 | 0.634 | 0.324 | 8 | 11.3 | 9.8 | 10.7 | 101 | 95 | 105 | 71.5 | 60.4 | 5.3 | 
7 | CNc1nc(-c2ccc3c(N)n[nH]c3c2)cc(N2C[C@@H](C(=O)NC3CCCCC3)CC[C@H]2C)n1 | 106 | 106 | 102 | 79 | 58 | 103 | 108 | 101 | 72.4 | 53.9 | 93.7 | 101 | 95.9 | 91 | 62.3 | 97.1 | 94.9 | 98.6 | 91 | 71.9 |  |  |  |  | 4.8 | 5.7 | 3.2 | 2.3 | 93.5 | 93.3 | 87.5 | 77.3 | 48.1 | 5.9 | 0.737
8 | CC(C(=O)O)c1ccc2c(c1)CC(=O)c1ccccc1S2 (centres undefined) [zaltoprofen] | 99.7 | 93.8 | 98.4 | 106 | 101 | 95.5 | 103 | 101 | 110 | 111 | 99.9 | 97.3 | 99.6 | 98.1 | 101 | 93.8 | 101 | 90.9 | 100 | 104 | > 10 | > 10 | > 10 | > 10 | 0 | 0 | 0 | 0 |  |  |  |  |  |  | 
